Columns and labels:
large milkweed bug [1] = assay: Initial insecticidal activity, milkweed bug; format: in vivo, Oncopeltus fasciatus (Dallas); settings: Oncopeltus fasciatus, 48-hour exposure, read-out: % Kill, Milkweed Bug
Description: (§1) a. Initial Insecticidal Activity
(§2) In this test, a candidate insecticide, in solution, is applied to either infested or uninfested plants or containers by spraying or dipping. (The preferred test procedure varies with insect species. The dipping method is better than the spraying method, and vice versa, for certain species of insects. Also some species are better adapted to the test by infesting after the chemical treatment rather than before.) Once the tests have been established, a 48-hour exposure period is observed before reading the tests. Insect species included in these tests are Mexican bean beetle (Epilachna varivestis Mulsant), pea aphid [Acyrthosiphon pisum (Harris)], southern armyworm [Spodoptera eridania (Cramer)], twospotted spider mite (Tetranychus urticae Koch), large milkweed bug [Oncopeltus fasciatus (Dallas)], plum curculio [Conotrachelus nenuphar (Herbst)], confused flour beetle (Tribolium confusum Jacquelin duVal) and granary weevil [Sitophilus granarius (Linnaeus)]. Test results are set forth in Table I. A control sample, comprising the solution without the candidate insecticide, is also included.

plum curculio = assay: Initial insecticidal activity, plum curculio; format: in vivo, Conotrachelus nenuphar (Herbst); settings: Conotrachelus nenuphar, 48-hour exposure, read-out: % Kill, Plum Curculio
Description: as §1, §2

confused flour beetle [2] = assay: Initial insecticidal activity, confused flour beetle; format: in vivo, Tribolium confusum Jacquelin duVal; settings: Tribolium confusum, 48-hour exposure, read-out: % Kill, Confused Flour Beetle
Description: as §1, §2

Mexican bean beetle [3] = assay: Initial insecticidal activity, Mexican bean beetle; format: in vivo, Epilachna varivestis Mulsant; settings: Epilachna varivestis, 48-hour exposure, read-out: % Kill, Mexican Bean Beetle
Description: as §1, §2

pea aphid [4] = assay: Initial insecticidal activity, pea aphid; format: in vivo, Acyrthosiphon pisum (Harris); settings: Acyrthosiphon pisum, 48-hour exposure, read-out: % Kill, Pea Aphid
Description: as §1, §2

southern armyworm [5] = assay: Initial insecticidal activity, southern armyworm; format: in vivo, Spodoptera eridania (Cramer); settings: Spodoptera eridania, 48-hour exposure, read-out: % Kill, Southern Armyworm
Description: as §1, §2

twospotted spider mite = assay: Initial insecticidal activity, twospotted spider mite; format: in vivo, Tetranychus urticae Koch; settings: Tetranychus urticae, 48-hour exposure, read-out: % Kill, Twospotted Spider Mite
Description: as §1, §2

large milkweed bug [6] = assay: Seven-day residual insecticidal activity, milkweed bug; format: in vivo, Oncopeltus fasciatus (Dallas); settings: Oncopeltus fasciatus, 48-hour exposure, read-out: % Kill, Milkweed Bug
Description: (§3) b. Seven-Day Residual Insecticidal Activity
(§4) In this test, a candidate insecticide, in solution, is applied to uninfested plants or containers by dipping or spraying. A seven-day holding period is necessary before infestation. A 48-hour exposure period is observed before evaluation of the tests. The insect species used in this type of test are the same as those listed under initial activity.

confused flour beetle [7] = assay: Seven-day residual insecticidal activity, confused flour beetle; format: in vivo, Tribolium confusum Jacquelin duVal; settings: Tribolium confusum, 48-hour exposure, read-out: % Kill, Confused Flour Beetle
Description: as §3, §4

Mexican bean beetle [8] = assay: Seven-day residual insecticidal activity, Mexican bean beetle; format: in vivo, Epilachna varivestis Mulsant; settings: Epilachna varivestis, 48-hour exposure, read-out: % Kill, Mexican Bean Beetle
Description: as §3, §4

pea aphid [9] = assay: Seven-day residual insecticidal activity, pea aphid; format: in vivo, Acyrthosiphon pisum (Harris); settings: Acyrthosiphon pisum, 48-hour exposure, read-out: % Kill, Pea Aphid
Description: as §3, §4

southern armyworm [10] = assay: Seven-day residual insecticidal activity, southern armyworm; format: in vivo, Spodoptera eridania (Cramer); settings: Spodoptera eridania, 48-hour exposure, read-out: % Kill, Southern Armyworm
Description: as §3, §4

house flies = assay: Level I immersion test, house flies; format: in vivo, Musca domestica Linnaeus; settings: HF, 5 mg/milliliter; for % Knockdown: 10 minutes after immersion; for mortality at 5000 µg/mL: Musca domestica, after 18-24 hours, read-out: % Kill
Procedure: (§5) e. Insecticidal Activity Against House Flies and German Cockroaches
(§6) Compounds of this invention were tested in a Level I test at 5 mg. of active compounds/milliliter of a solution of 40% acetone -- 60% water.
(§7) In this test a group of ten house flies (Musca domestica Linnaeus) were completely immersed in 25 ml. of the insecticidal test solution. After 10 seconds of immersion, the test solution is removed. The house flies are then transferred to holding cages lines with paper toweling. In the case of the house flies, the knockdown counts were recorded 10 minutes after termination of the immersion. The percent kill was recorded after 18-24 hours.

German cockroaches [11] = assay: Level I immersion test, German cockroaches; format: in vivo, Blattella germanica (Linnaeus); settings: GC (male), 5 mg/milliliter; for mortality at 5000 µg/mL: Blattella germanica, 18-24 hours, read-out: % Kill; for % Knockdown: 30 minutes after immersion
Procedure: as §5, §6, §7
The same Level I test technique was employed using male German cockroaches [Blattella germanica (Linnaeus)]. In this case, the knockdown counts were recorded 30 minutes after the termination of the immersion.

[12] = tested on: female house flies (resistant); assay: Level II topical test, house flies; format: in vivo, Musca domestica Linnaeus; settings: HF (female, resistant), one microgram topically per insect; for % Knockdown: 10 minutes; for mortality at 0.001 mg: Musca domestica, topical, read-out: % Kill
Procedure: as §5
(§8) In a Level II test the compounds of this invention were tested for insecticidal activity against female house flies (resistant) and male German cockroaches. Ten insects were anesthetized with carbon dioxide and placed in a container for about 2 hours, during which time the insects recovered to normal activity. The container confining the insects is fitted with a plunger which is used to force the insects against a nylon mesh at one end of the container. One microliter of an acetone solution containing one microgram of the candidate insecticide was applied topically to each insect. The plunger was withdrawn and the insects were allowed to move freely about the container. Knockdown counts were recorded 10 minutes after treatment of house flies and 30 minutes after treatment of cockroaches.

German cockroaches [13] = assay: Level II topical test, German cockroaches; format: in vivo, Blattella germanica (Linnaeus); settings: GC (male), one microgram topically per insect; for mortality at 0.001 mg: Blattella germanica, topical, read-out: % Kill; for % Knockdown: 30 minutes
Procedure: as §5, §8

CCCOP(=O)(OCCC)N(CCC)SN(C)C(=O)Oc1cccc2c1OC(C)(C)C2 [3(c)]
mortality at 39 ppm (large milkweed bug [1]): 85%
mortality at 156 ppm (large milkweed bug [1]): 100%
mortality at 1250 ppm (large milkweed bug [1]): 100%
mortality at 39 ppm (plum curculio): 5%
mortality at 156 ppm (plum curculio): 5%
mortality at 1250 ppm (plum curculio): 77%
mortality at 39 ppm (confused flour beetle [2]): 0%
mortality at 156 ppm (confused flour beetle [2]): 2%
mortality at 1250 ppm (confused flour beetle [2]): 55%
mortality at 39 ppm (Mexican bean beetle [3]): 100%
mortality at 156 ppm (Mexican bean beetle [3]): 100%
mortality at 1250 ppm (Mexican bean beetle [3]): 100%
mortality at 39 ppm (pea aphid [4]): 31%
mortality at 156 ppm (pea aphid [4]): 100%
mortality at 1250 ppm (pea aphid [4]): 100%
mortality at 39 ppm (southern armyworm [5]): 0%
mortality at 156 ppm (southern armyworm [5]): 22%
mortality at 1250 ppm (southern armyworm [5]): 100%
mortality at 39 ppm (twospotted spider mite): 32%
mortality at 156 ppm (twospotted spider mite): 86%
mortality at 1250 ppm (twospotted spider mite): 100%
mortality at 39 ppm (large milkweed bug [6]): 5%
mortality at 156 ppm (large milkweed bug [6]): 90%
mortality at 1250 ppm (large milkweed bug [6]): 100%
mortality at 39 ppm (confused flour beetle [7]): 0%
mortality at 156 ppm (confused flour beetle [7]): 0%
mortality at 1250 ppm (confused flour beetle [7]): 78%
mortality at 39 ppm (Mexican bean beetle [8]): 28%
mortality at 156 ppm (Mexican bean beetle [8]): 92%
mortality at 1250 ppm (Mexican bean beetle [8]): 100%
mortality at 39 ppm (pea aphid [9]): 0%
mortality at 156 ppm (pea aphid [9]): 0%
mortality at 1250 ppm (pea aphid [9]): 73%
mortality at 39 ppm (southern armyworm [10]): 0%
mortality at 156 ppm (southern armyworm [10]): 0%
mortality at 1250 ppm (southern armyworm [10]): 0%
% Knockdown (house flies): 100%
mortality at 5000 µg/mL (house flies): 100%
mortality at 5000 µg/mL (German cockroaches [11]): 100%
% Knockdown (German cockroaches [11]): 100%
% Knockdown [12]: 0%
mortality at 0.001 mg [12]: 40%
mortality at 0.001 mg (German cockroaches [13]): 0%
% Knockdown (German cockroaches [13]): 0%

CCN(SN(C)C(=O)Oc1cccc2c1OC(C)(C)C2)P(=O)(OC)OC [5(c), 2,3-dihydro-2,2-dimethyl-7-benzofuranyl [(N-dimethoxyphosphinyl) (N-ethyl)aminosulfenyl][methyl]carbamate]
mortality at 39 ppm (large milkweed bug [1]): 100%
mortality at 156 ppm (large milkweed bug [1]): 100%
mortality at 1250 ppm (large milkweed bug [1]): 100%
mortality at 39 ppm (plum curculio): 50%
mortality at 156 ppm (plum curculio): 85%
mortality at 1250 ppm (plum curculio): 100%
mortality at 39 ppm (confused flour beetle [2]): 0%
mortality at 156 ppm (confused flour beetle [2]): 0%
mortality at 1250 ppm (confused flour beetle [2]): 78%
mortality at 39 ppm (Mexican bean beetle [3]): 78%
mortality at 156 ppm (Mexican bean beetle [3]): 100%
mortality at 1250 ppm (Mexican bean beetle [3]): 100%
mortality at 39 ppm (pea aphid [4]): 0%
mortality at 156 ppm (pea aphid [4]): 100%
mortality at 1250 ppm (pea aphid [4]): 100%
mortality at 39 ppm (southern armyworm [5]): 0%
mortality at 156 ppm (southern armyworm [5]): 69%
mortality at 1250 ppm (southern armyworm [5]): 100%
mortality at 39 ppm (twospotted spider mite): 6%
mortality at 156 ppm (twospotted spider mite): 47%
mortality at 1250 ppm (twospotted spider mite): 100%
mortality at 39 ppm (large milkweed bug [6]): 0%
mortality at 156 ppm (large milkweed bug [6]): 100%
mortality at 1250 ppm (large milkweed bug [6]): 100%
mortality at 39 ppm (confused flour beetle [7]): 0%
mortality at 156 ppm (confused flour beetle [7]): 0%
mortality at 1250 ppm (confused flour beetle [7]): 0%
mortality at 39 ppm (Mexican bean beetle [8]): 6%
mortality at 156 ppm (Mexican bean beetle [8]): 70%
mortality at 1250 ppm (Mexican bean beetle [8]): 100%
mortality at 39 ppm (pea aphid [9]): 0%
mortality at 156 ppm (pea aphid [9]): 0%
mortality at 1250 ppm (pea aphid [9]): 62%
mortality at 39 ppm (southern armyworm [10]): 0%
mortality at 156 ppm (southern armyworm [10]): 0%
mortality at 1250 ppm (southern armyworm [10]): 61%
% Knockdown (house flies): 100%
mortality at 5000 µg/mL (house flies): 100%
mortality at 5000 µg/mL (German cockroaches [11]): 100%
% Knockdown (German cockroaches [11]): 100%
% Knockdown [12]: 0%
mortality at 0.001 mg [12]: 38%
mortality at 0.001 mg (German cockroaches [13]): 0%
% Knockdown (German cockroaches [13]): 0%
